Earlier results as cited in patent US20210196661A1, “METHOD FOR AMELIORATION OF INSULIN RESISTANCE” (priority 2019, published 2021).

Key:
[1] = tested on: integrated stress response (ISR); conditions: mice
[2] = in vivo

SMILES | age-related memory impairment [1] | levels of ATF4 [1] | levels of phosphorylated eIF2a [1] | half life [2]
O=C(COc1ccc(Cl)cc1)NC1CCC(NC(=O)COc2ccc(Cl)cc2)CC1 (stereo not shown) [ISM] | rapidly reverses | decreases | decreases | –
N[C@@H](Cc1cc(I)c(Oc2cc(I)c(O)c(I)c2)c(I)c1)C(=O)O [T4, L-thyroxine] | – | – | – | 120 to 170 h
